Ki data for one molecule are collected here from patent US7462713B2, “Tricyclic compounds protein kinase inhibitors for enhancing the efficacy of anti-neoplastic agents and radiation therapy” (Agouron Pharmaceuticals, Inc., priority 2003, dated 2008).

Where a name gives a salt, the structure may show the parent alone.

The assay concerns the target T1, kinase domain of human CHK-1 (KH289) (Homo sapiens, UniProt O14757).
T1 construct: kinase domain of human CHK-1 (KH289), amino acid residues 1-289; made in house; host or cells: baculovirus (Bac-to-Bac); Hi-S insect cells for protein production, Sf9/Sf21 for virus amplification
T1 sequence (O14757 1-289): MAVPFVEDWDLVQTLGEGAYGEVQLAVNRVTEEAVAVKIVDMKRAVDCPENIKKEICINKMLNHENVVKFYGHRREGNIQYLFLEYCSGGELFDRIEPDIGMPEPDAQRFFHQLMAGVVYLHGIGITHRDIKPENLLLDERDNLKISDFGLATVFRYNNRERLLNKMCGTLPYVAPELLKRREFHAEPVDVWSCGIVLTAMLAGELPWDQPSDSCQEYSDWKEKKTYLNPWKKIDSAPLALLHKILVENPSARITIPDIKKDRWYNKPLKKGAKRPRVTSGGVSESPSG
Briefly: CHK-1 coupled spectrophotometric enzyme assay (Syntide-2, PK/LDH, NADH oxidation). Format: biochemical. The following applies: 10 nM KH289, 0.15 mM ATP, 0.125 mM Syntide-2, pH 7.5. From the text:
As previously detailed in European Patent Application No. 1 096 014 A2 (filed Oct. 31, 2000), the C-terminally His-tagged kinase domain of human CHK-1 (KH289), amino acid residues 1-289, can be expressed using the baculovirus/insect cell system. […] The Bac-to-Bac system (Life Technologies) can be used to generate recombinant baculovirus for the expression of KH289 as per instructions. Recombinant viruses can be confirmed by PCR for the presence of CHK-1 cDNA insertion. […] Sf9 insect cells (Invitrogen, Carlsbad, Calif., USA) can be used for initial amplification of recombinant virus stock. High titer stocks of recombinant viruses can be generated by 2 to 3 rounds of amplification using Sf21 insect cells. Hi-S insect cells (Invitrogen, Carlsbad, Calif., USA) can be used for protein production. Both Sf9 and Hi-S cell lines can be adapted to grow in insect medium containing 1% Fetal Bovine Serum (Life Technologies, Grand Island, N.Y., USA). The viral stock was stored at […] and used for large-scale protein production within 2 months to avoid viral instability. For protein production, infected Hi-S cells can be harvested by centrifugation and stored at −80° C. From these cells, 6X-His tagged KH289 (identified by SDS-PAGE) can be obtained after purification and can be flash-frozen in liquid N2 and stored at −80° C.
As previously detailed in European Patent Application No. 1 096 014 A2 (filed Oct. 31, 2000), the enzymatic activity of a kinase can be measured by its ability to catalyze the transfer of a phosphate residue from a nucleoside triphosphate to an amino acid side chain in a selected protein target. The conversion of ATP to ADP generally accompanies the catalytic reaction. Herein, a synthetic substrate peptide, Syntide-2, having amino acid sequence […] can be utilized. The production of ADP from ATP that accompanies phosphoryl transfer to the substrate can be coupled to oxidation of NADH using phosphoenolpyruvate (PEP) through the actions of pyruvate kinase (PK) and lactic dehydrogenase (LDH). The oxidation of NADH can be monitored by following the decrease of absorbance at 340 nm (e340=6.22 cm-1 mM-1) using a HP8452 spectrophotometer. Typical reaction solutions contained: 4 mM PEP, 0.15 mM NADH, 28 units of LDH/mL, 16 units of PK/mL, 3 mM DTT, 0.125 mM Syntide-2, 0.15 mM ATP and 25 mM MgCl2 in 50 mM TRIS pH 7.5; 400 mM NaCl. Assays can be initiated with 10 nM of kinase domain of CHK-1, KH289. Ki values can be determined by measuring initial enzyme activity in the presence of varying concentrations of inhibitors. The data can be analyzed using Enzyme Kinetic and Kaleidagraph software.

As a reminder, the Ki is the equilibrium dissociation constant of an inhibitor or competing ligand from its target. Low values mean tighter binding, high ones weaker binding. In the case of `Cn1cc(-c2[nH]c3cc(NC(=O)[C@H](N)CCc4ccccc4)cc4c3c2C=NNC4=O)cn1` [Example 256, (2R)-2-Amino-N-[2-(1-methyl-1H-pyrazol-4-yl)-6-oxo-5,6-dihydro-1H-[1,2]diazepino[4,5,6-cd]indol-8-yl]-4-phenyl-butylamide (hydrochloric salt)], the affinity corresponds to a Ki of 0.78 nM.
